From patent US20240199587A1, “HETEROCYCLIC COMPOUNDS” (Hoffmann-La Roche Inc., priority 2021, published 2024)

biological target: T1, MAGL (Homo sapiens, UniProt Q99685); experiment: 2-AG assay (MAGL inhibitory activity, hydrolysis of 2-arachidonoylglycerol to arachidonic acid followed by mass spectrometry); assay type: biochemical; conditions: 8 μM 2-arachidonoylglycerol, 15 min pre-incubation, 30 min incubation at RT, RapidFire MS readout
T1 sequence (Q99685 1-303): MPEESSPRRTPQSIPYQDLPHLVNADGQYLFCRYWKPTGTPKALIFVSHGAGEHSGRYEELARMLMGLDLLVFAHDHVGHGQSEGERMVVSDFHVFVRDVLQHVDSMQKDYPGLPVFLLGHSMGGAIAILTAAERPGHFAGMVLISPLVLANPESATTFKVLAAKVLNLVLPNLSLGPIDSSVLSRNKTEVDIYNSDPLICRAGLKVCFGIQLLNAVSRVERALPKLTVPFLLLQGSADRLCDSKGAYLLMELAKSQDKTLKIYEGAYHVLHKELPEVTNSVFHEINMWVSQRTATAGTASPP
Summary of the method: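 Human MAGL ([…] final) pre-incubated 15 min at RT with compound in 50 mM TRIS, 1 mM EDTA, 0.01% Tween-20, 2.5% DMSO; 8 μM 2-AG then added for 30 min at RT. Acetonitrile quench with d8-arachidonic acid; arachidonic acid measured by RapidFire SPE–MS/MS, activity from arachidonic acid/d8 ratio.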

IC50 | SMILES
5.55 nM | CC1(Cc2nnc(-c3ccc(C4CN(C(=O)N5CC6(CC(n7cnc(C(F)(F)F)n7)C6)C5)C4)cc3)[nH]2)CC1 [Example 425, [3-[4-[5-[(1-methylcyclopropyl)methyl]-4H-1,2,4-triazol-3-yl]phenyl]azetidin-1-yl]-[6-[3-(trifluoromethyl)-1,2,4-triazol-1-yl]-2-azaspiro[3.3]heptan-2-yl]methanone]
0.7 nM | O=C(N1CC(c2ccc(N3CC[C@H](C(F)(F)F)C3)nc2)C1)N1CC2(CC(n3cnc(C(F)(F)F)n3)C2)C1 [Example 426, [3-[6-[(3S)-3-(trifluoromethyl)pyrrolidin-1-yl]-3-pyridyl]azetidin-1-yl]-[6-[3-(trifluoromethyl)-1,2,4-triazol-1-yl]-2-azaspiro[3.3]heptan-2-yl]methanone]
58.5 nM | O=C(N1CC(c2ccc(NCC3CS(=O)(=O)C3)nc2)C1)N1CC2(CC(n3cnc(C(F)(F)F)n3)C2)C1 [Example 428, [3-[6-[(1,1-dioxothietan-3-yl)methylamino]-3-pyridyl]azetidin-1-yl]-[6-[3-(trifluoromethyl)-1,2,4-triazol-1-yl]-2-azaspiro[3.3]heptan-2-yl]methanone]
17.2 nM | CS(=N)(=O)c1ccc(CC2CC3(C2)CN(C(=O)N2CC4(CC(n5cnc(C(F)(F)F)n5)C4)C2)C3)cc1 (stereo not shown) [Example 430, [6-[[4-(methylsulfonimidoyl)phenyl]methyl]-2-azaspiro[3.3]heptan-2-yl]-[6-[3-(trifluoromethyl)-1,2,4-triazol-1-yl]-2-azaspiro[3.3]heptan-2-yl]methanone]
8.3 nM | O=C(N1CC(C23CC(c4nnc(C5CC5)[nH]4)(C2)C3)C1)N1CC2(CC(n3cnc(C4CC4)n3)C2)C1 [Example 432, [6-(3-cyclopropyl-1,2,4-triazol-1-yl)-2-azaspiro[3.3]heptan-2-yl]-[3-[3-(5-cyclopropyl-4H-1,2,4-triazol-3-yl)-1-bicyclo[1.1.1]pentanyl]azetidin-1-yl]methanone]
3.37 nM | O=C(N1CC2(CC(n3cnc(C4CC4)n3)C2)C1)N1CC2(CCN(Cc3ccc(C(F)(F)F)nc3)C2)C1 [Example 434]
7.69 nM | O=C(N1CC(C23CC(c4nnc(CC(F)(F)F)o4)(C2)C3)C1)N1CC2(CC(n3cnc(C4CC4)n3)C2)C1 [Example 435, [6-(3-cyclopropyl-1,2,4-triazol-1-yl)-2-azaspiro[3.3]heptan-2-yl]-[3-[3-[5-(2,2,2-trifluoroethyl)-1,3,4-oxadiazol-2-yl]-1-bicyclo[1.1.1]pentanyl]azetidin-1-yl]methanone]
3.74 nM | O=C(N1CC2(CC(n3cnc(C4CC4)n3)C2)C1)N1CC2(CCN(Cc3ccc(C(F)(F)F)cn3)C2)C1 [Example 439, [6-(3-cyclopropyl-1,2,4-triazol-1-yl)-2-azaspiro[3.3]heptan-2-yl]-[7-[[5-(trifluoromethyl)-2-pyridyl]methyl]-2,7-diazaspiro[3.4]octan-2-yl]methanone]
0.06 nM | N=S(=O)(c1ccc(CC2CC3(C2)CN(C(=O)N2CC4(CC(n5cnc(C6CC6)n5)C4)C2)C3)cc1)C(F)(F)F (stereo not shown) [Example 446, [6-(3-cyclopropyl-1,2,4-triazol-1-yl)-2-azaspiro[3.3]heptan-2-yl]-[6-[[4-(trifluoromethylsulfonimidoyl)phenyl]methyl]-2-azaspiro[3.3]heptan-2-yl]methanone]
71.4 nM | O=C(N1CC2(CC(n3cnc(C4CC4)n3)C2)C1)N1CC2(CC(n3ncnc3C3CC3)C2)C1 [Example 450, [6-(3-cyclopropyl-1,2,4-triazol-1-yl)-2-azaspiro[3.3]heptan-2-yl]-[6-(5-cyclopropyl-1,2,4-triazol-1-yl)-2-azaspiro[3.3]heptan-2-yl]methanone]
3.69 nM | O=C(N1CC(c2ccc(N3CC(O)(C(F)(F)F)C3)nc2)C1)N1CC2(CC(n3cnc(C(F)(F)F)n3)C2)C1 [Example 452, [3-[6-[3-hydroxy-3-(trifluoromethyl)azetidin-1-yl]-3-pyridyl]azetidin-1-yl]-[6-[3-(trifluoromethyl)-1,2,4-triazol-1-yl]-2-azaspiro[3.3]heptan-2-yl]methanone]

The remaining lines, values behind:

SMILES | IC50
O=C(N1CC(c2ccc(N3CC[C@@H](C(F)(F)F)C3)nc2)C1)N1CC2(CC(n3cnc(C(F)(F)F)n3)C2)C1 [Example 427, [3-[6-[(3R)-3-(trifluoromethyl)pyrrolidin-1-yl]-3-pyridyl]azetidin-1-yl]-[6-[3-(trifluoromethyl)-1,2,4-triazol-1-yl]-2-azaspiro[3.3]heptan-2-yl]methanone] | 0.53 nM
NC(=O)c1ccccc1-c1ccc(C2CN(C(=O)N3CC4(CC(n5cnc(C(F)(F)F)n5)C4)C3)C2)cc1 [Example 429, 2-[4-[1-[6-[3-(trifluoromethyl)-1,2,4-triazol-1-yl]-2-azaspiro[3.3]heptane-2-carbonyl]azetidin-3-yl]phenyl]benzamide] | 0.66 nM
CS(=N)(=O)c1cccc(CC2CC3(C2)CN(C(=O)N2CC4(CC(n5cnc(C(F)(F)F)n5)C4)C2)C3)c1 (stereo not shown) [Example 431, [6-[[3-(methylsulfonimidoyl)phenyl]methyl]-2-azaspiro[3.3]heptan-2-yl]-[6-[3-(trifluoromethyl)-1,2,4-triazol-1-yl]-2-azaspiro[3.3]heptan-2-yl]methanone] | 10.3 nM
O=C(N1CC(C23CC(c4nnc(C5CC5)[nH]4)(C2)C3)C1)N1CC2(CC(n3cnc(C(F)(F)F)n3)C2)C1 [Example 433, [3-[3-(5-cyclopropyl-4H-1,2,4-triazol-3-yl)-1-bicyclo[1.1.1]pentanyl]azetidin-1-yl]-[6-[3-(trifluoromethyl)-1,2,4-triazol-1-yl]-2-azaspiro[3.3]heptan-2-yl]methanone] | 44.1 nM
O=C(N1CC(C23CC(c4nnc(C5CC5)o4)(C2)C3)C1)N1CC2(CC(n3cnc(C4CC4)n3)C2)C1 [Example 436, [3-[3-(5-cyclopropyl-1,3,4-oxadiazol-2-yl)-1-bicyclo[1.1.1]pentanyl]azetidin-1-yl]-[6-(3-cyclopropyl-1,2,4-triazol-1-yl)-2-azaspiro[3.3]heptan-2-yl]methanone] | 9.82 nM
O=C(N1CC2(CC(n3cnc(C4CC4)n3)C2)C1)N1CC2(CCN(Cc3cnc(C(F)(F)F)cn3)C2)C1 [Example 437] | 6.37 nM
O=C(N1CC2(CC(n3cnc(C4CC4)n3)C2)C1)N1CC2(CCN(Cc3ccc(C(F)(F)F)nn3)C2)C1 [Example 438, [6-(3-cyclopropyl-1,2,4-triazol-1-yl)-2-azaspiro[3.3]heptan-2-yl]-[7-[[6-(trifluoromethyl)pyridazin-3-yl]methyl]-2,7-diazaspiro[3.4]octan-2-yl]methanone] | 14.9 nM
O=C(N1CC(C23CC(CNC4(C(F)(F)F)CC4)(C2)C3)C1)N1CC2(CC(n3cnc(C4CC4)n3)C2)C1 [Example 444, [6-(3-cyclopropyl-1,2,4-triazol-1-yl)-2-azaspiro[3.3]heptan-2-yl]-[3-[3-[[[1-(trifluoromethyl)cyclopropyl]amino]methyl]-1-bicyclo[1.1.1]pentanyl]azetidin-1-yl]methanone] | 0.05 nM
O=C(N1CC(C23CC(NCC4(C(F)(F)F)CC4)(C2)C3)C1)N1CC2(CC(n3cnc(C4CC4)n3)C2)C1 [Example 445, [6-(3-cyclopropyl-1,2,4-triazol-1-yl)-2-azaspiro[3.3]heptan-2-yl]-[3-[3-[[1-(trifluoromethyl)cyclopropyl]methylamino]-1-bicyclo[1.1.1]pentanyl]azetidin-1-yl]methanone] | 0.3 nM
N=S(=O)(c1cccc(CC2CC3(C2)CN(C(=O)N2CC4(CC(n5cnc(C6CC6)n5)C4)C2)C3)c1)C(F)(F)F (stereo not shown) [Example 447, [6-(3-cyclopropyl-1,2,4-triazol-1-yl)-2-azaspiro[3.3]heptan-2-yl]−[6-[[3-(trifluoromethylsulfonimidoyl)phenyl]methyl]-2-azaspiro[3.3]heptan-2-yl]methanone] | 0.02 nM
CC1(Cc2nnc(-c3ccc(C4CN(C(=O)N5CC6(CC(n7cnc(C8CC8)n7)C6)C5)C4)cc3)[nH]2)CC1 [Example 448, [6-(3-cyclopropyl-1,2,4-triazol-1-yl)-2-azaspiro[3.3]heptan-2-yl]-[3-[4-[5-[(1-methylcyclopropyl)methyl]-4H-1,2,4-triazol-3-yl]phenyl]azetidin-1-yl]methanone] | 0.93 nM
O=C(N1CC2(CC(n3cnc(C4CC4)n3)C2)C1)N1CC2(CC(n3cnc(C(F)(F)F)n3)C2)C1 [Example 449, [6-(3-cyclopropyl-1,2,4-triazol-1-yl)-2-azaspiro[3.3]heptan-2-yl]-[6-[3-(trifluoromethyl)-1,2,4-triazol-1-yl]-2-azaspiro[3.3]heptan-2-yl]methanone] | 1.37 nM
COc1cc(C(F)(F)F)ccc1CNC1CN(C(=O)N2CC3(CC(n4cnc(C(F)(F)F)n4)C3)C2)C1 [Example 451, [3-[[2-methoxy-4-(trifluoromethyl)phenyl]methylamino]azetidin-1-yl]-[6-[3-(trifluoromethyl)-1,2,4-triazol-1-yl]-2-azaspiro[3.3]heptan-2-yl]methanone] | 31.7 nM
CC1(O)CN(c2ccc(C3CN(C(=O)N4CC5(CC(n6cnc(C(F)(F)F)n6)C5)C4)C3)cn2)C1 [Example 453, [3-[6-(3-hydroxy-3-methyl-azetidin-1-yl)-3-pyridyl]azetidin-1-yl]-[6-[3-(trifluoromethyl)-1,2,4-triazol-1-yl]-2-azaspiro[3.3]heptan-2-yl]methanone] | 39.4 nM
